Results from patent publication US20120283228A1, “2alpha-Methyl and 2beta-Methyl Analogs of 19,26-Dinor-1alpha,25-Dihydroxyvitamin D3 and Their Uses” (WISCONSIN ALUMNI RESEARCH FOUNDATION, priority 2011, published 2012).
Entries after “also recorded” stand apart in the source; their conditions may differ.

What was measured:
[1] = system: Human promyelocytic leukemia (HL60) cells; assay: HL-60 differentiation (nitro blue tetrazolium reduction); assay type: cell-based; conditions: for EC50: HL-60 cells, read-out: EC50, ability to promote HL-60 cell differentiation
Description: Serial dilutions were prepared so that a range of drug concentrations could be tested without changing the final concentration of ethanol (≦0.2%) present in the cell cultures.
Human promyelocytic leukemia (HL60) cells were grown in RPMI-1640 medium containing 10% fetal bovine serus. The cells were incubated at 37° C. in the presence of 5% CO2.
HL60 cells were plated at 1.2×10^5 cells/ml. Eighteen hours after plating, cells in duplicate were treated with drug. Four days later, the cells were harvested and a nitro blue tetrazolium reduction assay was performed (Collins et al., 1979; J. Ex. Med. 149:969-974). The percentage of differentiated cells was determined by counting a total of 200 cells and recording the number that contained intracellular black-blue formazan deposits Verification of differentiation to monocytic cells was determined by measuring phagocytic activity (data not shown).

[2] = system: 24-hydroxylase (24Ohase) gene promoter; assay: In vitro transcription assay in ROS 17/2.8 (bone) cells, luciferase reporter; assay type: cell-based; conditions: for EC50: ROS 17/2.8 cells, 24-hydroxylase promoter-luciferase, read-out: EC50, transcriptional activity in bone cells; for logs less transcriptional activity than 1α,25-dihydroxyvitamin D3 in bone cells / times less transcriptional activity than 1α,25-dihydroxyvitamin D3 in bone cells: less than 1,25(OH)2D3
Description: Transcription activity was measured in ROS 17/2.8 (bone) cells that were stably transfected with a 24-hydroxylase (24Ohase) gene promoter upstream of a luciferase reporter gene (Arbour et al., 1998). Cells were given a range of doses. Sixteen hours after dosing the cells were harvested and luciferase activities were measured using a luminometer.
RLU=relative luciferase units.

vitamin D-deficient rats [3] = assay: Bone calcium mobilization (serum calcium); assay type: in vivo, Sprague-Dawley rats; conditions: rats on low calcium diet (0.02%); for mobilization of bone calcium at 7,020 pmol/day: 7,020 pmol/day for 4 consecutive days; for mobilization of bone calcium at 35,100 pmol/day: 35,100 pmol/day for 4 consecutive days; for activity in mobilizing calcium from bone / serum calcium levels: all dosages tested; for times less potent than 1,25(OH)2D3 in bone (bone calcium mobilization): 4 ip doses
Description: (§1) Male, weanling Sprague-Dawley rats were placed on Diet 11 (0.47% Ca) diet +AEK for one week followed by Diet 11 (0.02% Ca) +AEK for 3 weeks. The rats were then switched to a diet containing 0.47% Ca for one week followed by two, weeks on a diet containing 0.02% Ca. Dose administration began during the last week on 0.02% calcium diet. Four consecutive ip doses were given approximately 24 hours apart. Twenty-four hours after the last dose, blood was collected from the severed neck and the concentration of serum calcium determined as a measure of bone calcium mobilization. The first 10 cm of the intestine was also collected for intestinal calcium transport analysis using the everted gut sac method.

vitamin D-deficient rats [4] = assay: Intestinal calcium transport (everted gut sac method); assay type: in vivo, Sprague-Dawley rats; conditions: for intestinal calcium transport at 7,020 pmol/day / intestinal calcium transport at 35,100 pmol/day: compared with 1,25(OH)2D3 at 780 pmol/day
Description: as §1

[5] = molecular target: T1, full-length recombinant rat vitamin D receptor (Rattus norvegicus, UniProt P13053); conditions: for Ki: read-out: Ki, ability to compete with [3H]-1,25(OH)2D3 for binding to the vitamin D receptor, full-length recombinant rat VDR
T1 sequence (P13053 1-423): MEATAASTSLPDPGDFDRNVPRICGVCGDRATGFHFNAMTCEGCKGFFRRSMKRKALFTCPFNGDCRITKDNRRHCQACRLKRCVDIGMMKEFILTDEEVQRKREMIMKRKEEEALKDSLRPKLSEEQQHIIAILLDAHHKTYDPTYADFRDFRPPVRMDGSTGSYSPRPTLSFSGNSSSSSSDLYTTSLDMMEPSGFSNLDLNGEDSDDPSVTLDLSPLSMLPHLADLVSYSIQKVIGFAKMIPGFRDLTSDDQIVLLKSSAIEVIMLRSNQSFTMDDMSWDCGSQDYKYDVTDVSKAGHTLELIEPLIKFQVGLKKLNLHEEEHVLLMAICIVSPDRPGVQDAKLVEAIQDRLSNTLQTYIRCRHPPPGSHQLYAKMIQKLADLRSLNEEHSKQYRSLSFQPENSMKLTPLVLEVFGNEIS
Description: Full-length recombinant rat receptor was expressed in E. coli BL21 (DE3) Codon Plus RIL cells and purified to homogeneity using two different column chromatography systems. The first system was a nickel affinity resin that utilizes the C-terminal histidine tag on this protein. The protein that was eluted from this resin was further purified using ion exchange chromatography (S-Sepharose Fast Flow). Aliquots of the purified protein were quick frozen in liquid nitrogen and stored at −80° C. until use. For use in binding assays, the protein was diluted in TEDK50 (50 mM Tris, 1.5 mM EDTA, pH 7.4, 5 mM DTT, 150 mM KCl) with 0.1% Chaps detergent. The receptor protein and ligand concentration was optimized such that no more than 20% of the added radiolabeled ligand as bound to the receptor.
Radiolabeled and unlabeled ligands were added to 100 mcl of the diluted protein at a final ethanol concentration of ≦10%; mixed and incubated overnight on ice to reach binding equilibrium. The following day, 100 mcl of hydroxylapaptite slurry (50%) was added to each tube and mixed at 10-minute intervals for 30 minutes. The hydroxylapaptite was collected by centrifugation and then washed three times with Tris-EDTA buffer (50 mM Tris, 1.5 mM EDTA, pH 7.4) containing 0.5% Titron X-100. After the final wash, the pellets were transferred to scintillation vials containing 4 ml of Biosafe II scintillation cocktail, mixed and placed in a scintillation counter. Total binding was determined from the tubes containing only radiolabeled ligand.

| SMILES | EC50 [1] [nM] | EC50 [2] [nM] | times more transcriptional activity than 1α,25-dihydroxyvitamin D3 in bone cells ([2]; more than 1,25(OH)2D3) | mobilization of bone calcium at 7,020 pmol/day (vitamin D-deficient rats [3]) | mobilization of bone calcium at 35,100 pmol/day (vitamin D-deficient rats [3]) | activity in mobilizing calcium from bone / serum calcium levels (vitamin D-deficient rats [3]) | times less potent than 1,25(OH)2D3 in bone (bone calcium mobilization) (vitamin D-deficient rats [3]) | intestinal calcium transport at 7,020 pmol/day (vitamin D-deficient rats [4]) | logs less potent than 1,25(OH)2D3 in the intestine (vitamin D-deficient rats [4]; rats on low calcium diet (0.02%), 4 ip doses) | binding to the receptor as compared to 1,25(OH)2D3 [5] | intestinal calcium transport activity (vitamin D-deficient rats [4]; rats on low calcium diet (0.02%)) | times less potent than 1,25(OH)2D3 on HL-60 differentiation ([1]; less potent than 1,25(OH)2D3) | logs less transcriptional activity than 1α,25-dihydroxyvitamin D3 in bone cells [2] | times less transcriptional activity than 1α,25-dihydroxyvitamin D3 in bone cells [2] | intestinal calcium transport at 35,100 pmol/day (vitamin D-deficient rats [4]) | Ki [5] [nM] | logs less potent than 1,25(OH)2D3 on HL-60 differentiation ([1]; less potent than 1,25(OH)2D3) | HL-60 differentiation potency as compared to 1,25(OH)2D3 [1] | transcriptional activity in bone cells as compared to 1α,25-dihydroxyvitamin D3 [2] |
| --- | --- | --- | --- | --- | --- | --- | --- | --- | --- | --- | --- | --- | --- | --- | --- | --- | --- | --- | --- |
| CC(O)CCCC(C)C1CCC2C(=CC=C3CC(O)C(C)C(O)C3)CCCC21C (single isomer, unassigned) [TA-2] | 0.5 | 0.08 | about 4 times | did not result in mobilization of bone calcium | without any substantial effect | little, if any, activity | more than 50 times | some intestinal calcium transport activity, but still not to the same extent as 1,25(OH)2D3 | approximately 1 log and one | bound equally well; also recorded: equivalent |  |  |  |  |  |  |  |  |  |
| C=C1/C(=C\C=C2/CCC[C@]3(C)[C@@H]([C@H](C)CCCC(C)(C)O)CC[C@@H]23)C[C@@H](O)C[C@@H]1O [1,25(OH)2D3, 1α,25-dihydroxyvitamin D3, reference compound] | 2 | 0.2 |  |  |  | increased serum calcium levels |  |  |  |  | significant activity |  |  |  |  |  |  |  |  |
| CC1[C@H](O)CC(=C/C=C2\CCC[C@]3(C)[C@@H]([C@H](C)CCC[C@@H](C)O)CC[C@@H]23)C[C@H]1O (stereo partly drawn) [DW-1, (20R,25R)-2β-methyl-19,26-dinor-1α,25-dihydroxyvitamin D3] | 60 | 20 |  | did not result in mobilization of bone calcium | without any substantial effect | little, if any, activity | more than 50 times |  |  |  |  | about 30 times | about 2 log | ~20 times | some intestinal calcium transport activity, but still not to the same extent as 1,25(OH)2D3 | 1 |  |  |  |
| CC1[C@H](O)CC(=C/C=C2\CCC[C@]3(C)[C@@H]([C@@H](C)CCC[C@H](C)O)CC[C@@H]23)C[C@H]1O (stereo partly drawn) [IB-1, (20S,25S)-2β-methyl-19,26-dinor-1α,25-dihydroxyvitamin D3] | 20 | 7 |  |  | did not result in mobilization of bone calcium | little, if any, activity | more than 50 times |  |  |  |  | 10 times | about 3 log | approximately 30 times | some intestinal calcium transport activity; but still not to the same extent as 1,25(OH)2D3 | 0.8 | one and about one |  |  |
| CC1[C@H](O)CC(=C/C=C2\CCC[C@]3(C)[C@@H]([C@H](C)CCC[C@@H](C)O)CC[C@@H]23)C[C@H]1O (stereo partly drawn) [MY-2, (20R,25R)-2α-methyl-19,26-dinor-1α,25-dihydroxyvitamin D3] | 2 | 0.4 |  | did not result in mobilization of bone calcium | without any substantial effect | little, if any, activity | more than 50 times | some intestinal calcium transport activity, but still not to the same extent as 1,25(OH)2D3 |  | bound equally well; also recorded: equivalent |  |  |  |  |  | 0.2 |  | as potent as 1,25(OH)2D3; also recorded: little difference | equivalent to 1α,25-dihydroxyvitamin D3; also recorded: about the same transcriptional activity |
